Results from PubChem BioAssay (NCI).
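Cultured in 96-well plates, cells were exposed to test compound for 48 hours across five concentrations. TGI: total growth inhibition.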

Tests used:
Assay in all cases: NCI anticancer screen, dose series, 48 h
SK-OV-3 ovarian = test system: SK-OV-3 ovarian
XF 498 CNS = test system: XF 498 CNS
LXFL 529 NSCLC = test system: LXFL 529 NSCLC
TK-10 renal = test system: TK-10 renal
ACHN renal = test system: ACHN renal
OVCAR-5 ovarian = test system: OVCAR-5 ovarian
SF-268 CNS = test system: SF-268 CNS
SR leukemia = test system: SR leukemia
IGROV1 ovarian = test system: IGROV1 ovarian
MALME-3M melanoma = test system: MALME-3M melanoma
U251 CNS = test system: U251 CNS
DMS 273 small cell lung = test system: DMS 273 small cell lung
HOP-62 NSCLC = test system: HOP-62 NSCLC
DLD-1 colon = test system: DLD-1 colon
SF-539 CNS = test system: SF-539 CNS
NCI-H460 lung = test system: NCI-H460 lung
SN12C renal = test system: SN12C renal
NCI-H522 lung = test system: NCI-H522 lung
NCI-H226 lung = test system: NCI-H226 lung
RXF-631 renal = test system: RXF-631 renal
SK-MEL-2 melanoma = test system: SK-MEL-2 melanoma
HOP-92 NSCLC = test system: HOP-92 NSCLC
LOX IMVI melanoma = test system: LOX IMVI melanoma
SF-295 CNS = test system: SF-295 CNS
UO-31 renal = test system: UO-31 renal
SNB-78 CNS = test system: SNB-78 CNS
M19-MEL melanoma = test system: M19-MEL melanoma
HCT-116 colon = test system: HCT-116 colon
SK-MEL-5 melanoma = test system: SK-MEL-5 melanoma
SK-MEL-28 melanoma = test system: SK-MEL-28 melanoma
RXF 393 renal = test system: RXF 393 renal
HT29 colon = test system: HT29 colon
HCT-15 colon = test system: HCT-15 colon
MOLT-4 leukemia = test system: MOLT-4 leukemia
OVCAR-4 ovarian = test system: OVCAR-4 ovarian
NCI-H23 lung = test system: NCI-H23 lung
A498 renal = test system: A498 renal
UACC-257 melanoma = test system: UACC-257 melanoma
KM12 colon = test system: KM12 colon
EKVX NSCLC = test system: EKVX NSCLC
A549 NSCLC = test system: A549 NSCLC
M14 melanoma = test system: M14 melanoma
DMS 114 small cell lung = test system: DMS 114 small cell lung
UACC-62 melanoma = test system: UACC-62 melanoma
K-562 leukemia = test system: K-562 leukemia
COLO 205 colon = test system: COLO 205 colon
CAKI-1 renal = test system: CAKI-1 renal
786-0 renal = test system: 786-0 renal
HCC-2998 colon = test system: HCC-2998 colon
SNB-19 CNS = test system: SNB-19 CNS
RPMI-8226 leukemia = test system: RPMI-8226 leukemia
OVCAR-8 ovarian = test system: OVCAR-8 ovarian
CCRF-CEM leukemia = test system: CCRF-CEM leukemia
SW-620 colon = test system: SW-620 colon
HOP-18 NSCLC = test system: HOP-18 NSCLC
KM20L2 colon = test system: KM20L2 colon
OVCAR-3 ovarian = test system: OVCAR-3 ovarian
SNB-75 CNS = test system: SNB-75 CNS
HL-60(TB) leukemia = test system: HL-60(TB) leukemia

Which TGI (SK-OV-3 ovarian) does the source give for CCOC(=O)N[C@H]1CCc2cc(O)c(OC)c(OC)c2-c2ccc(SC)c(=O)cc21 here?
Its TGI is > 8.57 µM.

What about the TGI (XF 498 CNS) of the same compound?
Its TGI is > 44.4 µM.

What about the TGI (LXFL 529 NSCLC) of the same compound?
The TGI was > 92.3 µM.

And the TGI (TK-10 renal)?
The TGI was > 100 µM.

And the TGI (ACHN renal)?
Its TGI is > 100 µM.

What about the TGI (OVCAR-5 ovarian) of the same compound?
The TGI was > 100 µM.

And the TGI (SF-268 CNS)?
Its TGI is 37.8 µM.

And the TGI (SR leukemia)?
Its TGI is > 100 µM.

What about the TGI (IGROV1 ovarian) of the same compound?
The TGI was > 86.9 µM.

And the TGI (MALME-3M melanoma)?
Its TGI is > 100 µM.

What about the TGI (U251 CNS) of the same compound?
The TGI was > 6.92 µM.

What about the TGI (DMS 273 small cell lung) of the same compound?
Its TGI is > 100 µM.

What about the TGI (HOP-62 NSCLC) of the same compound?
The TGI was > 100 µM.

And the TGI (DLD-1 colon)?
Its TGI is > 100 µM.

What about the TGI (SF-539 CNS) of the same compound?
Its TGI is 0.044 µM.

What about the TGI (NCI-H460 lung) of the same compound?
The TGI was 3.58 µM.

And the TGI (SN12C renal)?
The TGI was > 58.9 µM.

And the TGI (NCI-H522 lung)?
Its TGI is 0.046 µM.

What about the TGI (NCI-H226 lung) of the same compound?
Its TGI is 1.25 µM.

What about the TGI (RXF-631 renal) of the same compound?
The TGI was 2.91 µM.

What about the TGI (SK-MEL-2 melanoma) of the same compound?
The TGI was 0.173 µM.

And the TGI (HOP-92 NSCLC)?
The TGI was 0.0786 µM.

And the TGI (LOX IMVI melanoma)?
The TGI was > 100 µM.

What about the TGI (SF-295 CNS) of the same compound?
Its TGI is 0.0995 µM.

What about the TGI (UO-31 renal) of the same compound?
The TGI was > 100 µM.

What about the TGI (SNB-78 CNS) of the same compound?
The TGI was > 8 µM.

And the TGI (M19-MEL melanoma)?
Its TGI is > 100 µM.

What about the TGI (HCT-116 colon) of the same compound?
The TGI was 10.7 µM.

And the TGI (SK-MEL-5 melanoma)?
Its TGI is 0.0145 µM.

And the TGI (SK-MEL-28 melanoma)?
Its TGI is > 100 µM.

What about the TGI (RXF 393 renal) of the same compound?
The TGI was 0.0207 µM.

And the TGI (HT29 colon)?
The TGI was 7.22 µM.

And the TGI (HCT-15 colon)?
Its TGI is > 100 µM.

What about the TGI (MOLT-4 leukemia) of the same compound?
Its TGI is > 100 µM.

What about the TGI (OVCAR-4 ovarian) of the same compound?
The TGI was > 100 µM.

And the TGI (NCI-H23 lung)?
The TGI was 9.95 µM.

What about the TGI (A498 renal) of the same compound?
Its TGI is 0.922 µM.

What about the TGI (UACC-257 melanoma) of the same compound?
The TGI was > 100 µM.

What about the TGI (KM12 colon) of the same compound?
Its TGI is 0.413 µM.

And the TGI (EKVX NSCLC)?
The TGI was > 100 µM.

What about the TGI (A549 NSCLC) of the same compound?
Its TGI is > 100 µM.

What about the TGI (M14 melanoma) of the same compound?
The TGI was 51.5 µM.

And the TGI (DMS 114 small cell lung)?
The TGI was 0.473 µM.

What about the TGI (UACC-62 melanoma) of the same compound?
The TGI was > 100 µM.

What about the TGI (K-562 leukemia) of the same compound?
Its TGI is > 100 µM.

And the TGI (COLO 205 colon)?
The TGI was 1.22 µM.

What about the TGI (CAKI-1 renal) of the same compound?
Its TGI is > 65.3 µM.

And the TGI (786-0 renal)?
Its TGI is > 59.9 µM.

What about the TGI (HCC-2998 colon) of the same compound?
The TGI was > 100 µM.

What about the TGI (SNB-19 CNS) of the same compound?
The TGI was > 100 µM.

What about the TGI (RPMI-8226 leukemia) of the same compound?
Its TGI is > 72.6 µM.

And the TGI (OVCAR-8 ovarian)?
The TGI was > 100 µM.

What about the TGI (CCRF-CEM leukemia) of the same compound?
Its TGI is > 13.9 µM.

And the TGI (SW-620 colon)?
The TGI was > 100 µM.

And the TGI (HOP-18 NSCLC)?
Its TGI is > 100 µM.

What about the TGI (KM20L2 colon) of the same compound?
The TGI was 0.0301 µM.

What about the TGI (OVCAR-3 ovarian) of the same compound?
The TGI was 0.0375 µM.

Which results are given for COc1ccc2c(c1)O[C@H]1c3ccc(O)cc3OC[C@@H]21?
TGI (SK-OV-3 ovarian): 98.9 µM; TGI (XF 498 CNS): 46.4 µM; TGI (LXFL 529 NSCLC): 80.3 µM; TGI (TK-10 renal): > 100 µM; TGI (ACHN renal): 81.4 µM; TGI (OVCAR-5 ovarian): > 100 µM; TGI (SF-268 CNS): > 100 µM; TGI (SR leukemia): 43.7 µM; TGI (IGROV1 ovarian): 71.6 µM; TGI (MALME-3M melanoma): > 100 µM; TGI (U251 CNS): > 100 µM; TGI (DMS 273 small cell lung): > 100 µM; TGI (HOP-62 NSCLC): > 100 µM; TGI (DLD-1 colon): > 100 µM; TGI (SF-539 CNS): 49.9 µM; TGI (NCI-H460 lung): > 100 µM; TGI (SN12C renal): > 100 µM; TGI (NCI-H522 lung): 79.4 µM; TGI (NCI-H226 lung): 59.3 µM; TGI (RXF-631 renal): > 100 µM; TGI (SK-MEL-2 melanoma): 72.7 µM; TGI (LOX IMVI melanoma): 32.2 µM; TGI (SF-295 CNS): > 100 µM; TGI (UO-31 renal): 72.6 µM; TGI (SNB-78 CNS): > 100 µM; TGI (M19-MEL melanoma): 46 µM; TGI (HCT-116 colon): > 100 µM; TGI (SNB-75 CNS): 47.1 µM; TGI (SK-MEL-5 melanoma): 32 µM; TGI (RXF 393 renal): 54.9 µM; TGI (HT29 colon): > 100 µM; TGI (HCT-15 colon): > 100 µM; TGI (MOLT-4 leukemia): 55.2 µM; TGI (OVCAR-4 ovarian): > 100 µM; TGI (NCI-H23 lung): 86.5 µM; TGI (UACC-257 melanoma): 52.5 µM; TGI (EKVX NSCLC): > 100 µM; TGI (A549 NSCLC): > 100 µM; TGI (M14 melanoma): 47.7 µM; TGI (UACC-62 melanoma): 29.3 µM; TGI (K-562 leukemia): > 100 µM; TGI (COLO 205 colon): 57 µM; TGI (CAKI-1 renal): > 100 µM; TGI (HCC-2998 colon): 53 µM; TGI (SNB-19 CNS): > 100 µM; TGI (RPMI-8226 leukemia): 89 µM; TGI (OVCAR-8 ovarian): > 100 µM; TGI (CCRF-CEM leukemia): 65.8 µM; TGI (SW-620 colon): > 100 µM; TGI (HOP-18 NSCLC): > 100 µM; TGI (HL-60(TB) leukemia): 49.8 µM; TGI (KM20L2 colon): > 100 µM; TGI (OVCAR-3 ovarian): > 100 µM
